Test results reported in patent publication US20110003883A1, “ALLOSTERIC TRANS-SPLICING GROUP I RIBOZYME WHOSE ACTIVITY OF TARGET-SPECIFIC RNA REPLACEMENT IS CONTROLLED BY THEOPHYLLINE” (Industry-Academic Cooperation Foundation, Dankook University, priority 2008, published 2011).

Assays:
HepG2 cells = test: MTT assay in HepG2 cells (hTERT+); type: cell-based, human; conditions: HepG2 cells with Ad-TheoRib-TK
Protocol: (§1) Cells were seeded in a 96 well plate (TPP) for 1 day, and then infected with Ad-TK (an adenoviral vector expressing a TK gene under the control of a CMV promoter), Ad-Rib-TK, Ad-TheoRib-TK, and Ad-LacZ (an adenoviral vector expressing a LacZ gene under the control of a CMV promoter) adenoviruses, respectively. The used media supplemented with GCV and a chemical (theophylline or caffeine) were exchanged with the same new media from every second to fifth day from the day after the virus infection. The HT-29 strain was seeded at a cell number of 3×10^3/well, the HepG2 strain was seeded at a cell number of 3×10^3/well, the Capan-1 strain was seeded at a cell number of 5×10^3/well, and the IMR90 strain was seeded at a cell number of 5×10^3/well. 5 days after the seeding of the strains, CellTiter 96® AQueous ONE Solution Cell Proliferation Assay (Promega) was added to each cell medium so that it amounted to 20% of the total medium, and the 96 wells were treated with 100 μl of resulting cell medium per well, and measured at a wavelength of 490 nm, using a Microplate reader model 550 (BioRad), to observe cell viability of the cells. […]

Capan-1 cells = test: MTT assay in Capan-1 cells (hTERT+); type: cell-based, human; conditions: Capan-1 cells with Ad-TheoRib-TK
Protocol: as §1

HT-29 cells = test: MTT assay in HT-29 cells (hTERT+); type: cell-based, human; conditions: HT-29 cells with Ad-TheoRib-TK
Protocol: as §1

theophylline aptamer = conditions: cited from earlier work

Row | Structure (SMILES) | optimum condition for allosterically induced gene expression: concentration (HepG2 cells) | optimum condition for allosterically induced gene expression: concentration (Capan-1 cells) | optimum condition for allosterically induced gene expression: concentration (HT-29 cells) | affinity to the theophylline aptamer, lower than theophylline (theophylline aptamer)
1 | Nc1nc(O)c2ncn(COC(CO)CO)c2n1 [GCV, ganciclovir] | 10 µM | 50 µM | 10 µM | 
2 | Cn1c(=O)c2c(ncn2C)n(C)c1=O [caffeine] |  |  |  | 1000 times
3 | Cn1c(=O)c2[nH]cnc2n(C)c1=O [theophylline] | 10 µM | 500 µM | 100 µM | 
